Measurements from US6894037B2, “2-methylene-19-nor-20(S)-25-methyl-1α-hydroxycalciferol and its uses” (Wisconsin Alumni Research Foundation, priority 2003, dated 2005).
Entries after “also recorded” stand apart in the source; their conditions may differ.

Tests used:
CD-1 mice [1] = assay: Bone calcium mobilization: serum calcium of mice fed 0.02% calcium diet after single oral dose; type: in vivo; settings: for Bone Calcium Mobilization (serum calcium): single oral gavage, 0.02% calcium diet; for Bone calcium mobilization activity (bone resorption in vivo), in words: single oral dose, mice on 0.02% calcium diet
Source text: Goal: Determine whether or not TMM has bone calcium mobilization activity and how it compares to 1,25(OH)2D3 and 2-methylene-19-nor-20(S)-1α, 25-(OH)2D3 (hereinafter referred to as 2MD).
5-6 week old CD-1 mice were placed in the +D mouse room and fed chow diet. They were allowed to acclimate for 5 days before being switched to a purified diet described by Yang et al (Arch. Biochem. Biphys. 303, 98, 1993) containing 0.02% calcium and 0.3% P. Two days after the diet switch, dose administration began. Experimental Design:
All animals were weighed prior to dosing. The animals were divided into groups containing 5 animals/group. All animals were administered the drug by oral gavage one time. The dose was delivered in 100 μl Neobee oil/25 g mouse. […] The rise in serum calcium comes from bone mobilization only since no calcium is available from the intestine.
Mice fed a 0.02% calcium diet can only elevate their serum calcium levels by resorbing bone because no calcium is available through intestinal absorption. […] At lower doses, there was no significant elevation of serum calcium. […] Thus, the importance of the 25-hydroxyl for bone calcium mobilization is illustrated.

[2] = previous work; cited from earlier work
CD-1 mice [3] = assay: Intestinal calcium transport: serum calcium of alendronate-treated mice on 0.47% calcium diet; type: in vivo; settings: FIG. 3
Source text: FIG. 3 is a graph illustrating serum calcium versus time of mice injected with vehicle plus alendronate, with 1α,25-dihydroxyvitamin D3 plus alendronate, or with 2-methylene-19-nor-20(S)-25-methyl-1α-hydroxycalciferol (TMM) plus alendronate. Since alendronate blocks bone resorption the rise in serum calcium reflects only intestinal absorption.
In this measurement, alendronate is used to block bone resorption so the rise in serum calcium is because of increased calcium absorption from the intestine.
Goal: Determine whether or not TMM has intestinal calcium transport activity and how it compares to 1,25(OH)2D3.
5-6 week old CD-1 mice were placed in the +D mouse room and fed chow diet. They were allowed to acclimate for 7 days before being switched to a diet containing 0.47% calcium.
All animals were weighed prior to dosing and divided into groups containing 5 animals/treatment group. […] Once all time points were collected, the serum was diluted 1:50 in 0.1% Lanthum Chloride and analyzed by atomic absorption spectrometry for determination of total serum calcium levels. • Group 1: Neobee oil+Alendronate (1.75 mg/kg bw) • Group 2: 40.5 ug 1,25(OH)2D3/kg bw+Alendronate (1.75 mg/kg bw) • Group 3: 4.5 ug TMM/kg bw+Alendronate (1.75 mg/kg bw) • Group 4: 13.5 ug TMM/kg bw+Alendronate (1.75 mg/kg bw) • Group 5: 40.5 ug TMM/kg bw+Alendronate (1.75 mg/kg bw) Results: […]

HL-60 promyelocytes = assay: Differentiation of HL-60 promyelocytes into monocytes (NBT reduction); type: cell-based; settings: compared with 1,25-(OH)2D3; FIG. 2
Experimental: FIG. 2 is a graph illustrating the percent HL-60 cell differentiation as a function of the concentration of 2-methylene-19-nor-20(S)-25-methyl-1α-hydroxycalciferol or 1α,25-dihydroxyvitamin D3; and
The differentiation of HL-60 promyelocytes into monocytes was determined as described by Ostrem et al (J. Biol. Chem. 262, 14164-14171, 1987).
Induction of differentiation of HL-60 promyelocytes to monocytes by 1α,25-(OH)2D3 and the synthesized vitamin D analog was determined by measuring the percentage of cells reducing nitro blue tetrazolium (NBT). The experiment was repeated three times. The values ED50 can be derived from dose-response curves (FIG. 2) and represent the analog concentration capable of inducing 50% maturation. Differentiation activity ratio can then be determined from the ratio of the analog average ED50 to the ED50 for 1α,25-(OH)2D3.

[4] = tested on: porcine intestinal vitamin D receptor; assay: Competitive binding to the porcine intestinal vitamin D receptor, displacement of [3H]-1,25-(OH)2-D3; settings: compared with the native hormone 1,25-(OH)2D3; FIG. 1
Experimental: FIG. 1 is a graph illustrating the relative activity of 2-methylene-19-nor-20(S)-25-methyl-1α-hydroxycalciferol or 1α,25-dihydroxyvitamin D3 to compete for binding of [3H]-1,25-(OH)2—D3 to the vitamin D pig intestinal nuclear receptor;
Competitive binding of the analog to the porcine intestinal receptor was carried out by the method described by Dame et al (Biochemistry 25, 4523-4534, 1986).
Competitive binding of 1α, 25-(OH)2D3 and the synthesized vitamin D analog to the porcine intestinal vitamin D receptor was carried out in triplicate on two different occasions. ED50 values can be derived from dose-response curves (FIG. 1) and represent the analog concentration required for 50% displacement of the radiolabeled 1α,25-(OH)2D3 from the receptor protein. Binding ratio can then be determined from the ratio of the analog average ED50 to the ED50 for 1α,25-(OH)2D3.

SMILES | Bone calcium mobilization activity (bone resorption in vivo), in words (CD-1 mice [1]; Table 1) | Bone Calcium Mobilization (serum calcium) (CD-1 mice [1]; 0.5 μg/kg, 0 hr (predose)) [mg/dL] | Bone Calcium Mobilization (serum calcium) (CD-1 mice [1]; 0.5 μg/kg, 24 hr) [mg/dL] | Bone Calcium Mobilization (serum calcium) (CD-1 mice [1]; 0.5 μg/kg, 48 hr) [mg/dL] | Bone Calcium Mobilization (serum calcium) (CD-1 mice [1]; 0.5 μg/kg, 72 hr) [mg/dL] | Bone Calcium Mobilization (serum calcium) (CD-1 mice [1]; 1.5 μg/kg, 0 hr (predose)) [mg/dL] | Bone Calcium Mobilization (serum calcium) (CD-1 mice [1]; 1.5 μg/kg, 24 hr) [mg/dL] | Bone Calcium Mobilization (serum calcium) (CD-1 mice [1]; 1.5 μg/kg, 48 hr) [mg/dL] | Bone Calcium Mobilization (serum calcium) (CD-1 mice [1]; 1.5 μg/kg, 72 hr) [mg/dL] | Bone Calcium Mobilization (serum calcium) (CD-1 mice [1]; 4.5 μg/kg, 0 hr (predose)) [mg/dL] | Bone Calcium Mobilization (serum calcium) (CD-1 mice [1]; 4.5 μg/kg, 24 hr) [mg/dL] | Bone Calcium Mobilization (serum calcium) (CD-1 mice [1]; 4.5 μg/kg, 48 hr) [mg/dL] | Bone Calcium Mobilization (serum calcium) (CD-1 mice [1]; 4.5 μg/kg, 72 hr) [mg/dL] | Bone Calcium Mobilization (serum calcium) (CD-1 mice [1]; 13.5 μg/kg, 0 hr (predose)) [mg/dL] | Bone Calcium Mobilization (serum calcium) (CD-1 mice [1]; 13.5 μg/kg, 24 hr) [mg/dL] | Bone Calcium Mobilization (serum calcium) (CD-1 mice [1]; 13.5 μg/kg, 48 hr) [mg/dL] | Bone Calcium Mobilization (serum calcium) (CD-1 mice [1]; 13.5 μg/kg, 72 hr) [mg/dL] | also measured
C=C1/C(=C\C=C2/CCC[C@]3(C)[C@@H]([C@H](C)CCCC(C)(C)O)CC[C@@H]23)C[C@@H](O)C[C@@H]1O [1α,25(OH)2D3, 1α,25-dihydroxyvitamin D3] | effective at 50 μg/kg bw and 450 μg/kg bw | – | – | – | – | – | – | – | – | – | – | – | – | – | – | – | – | Bone Calcium Mobilization (serum calcium) (CD-1 mice [1]; 50 μg/kg, 0 hr (predose)): 8.8 ± 0.2 mg/dL; Bone Calcium Mobilization (serum calcium) (CD-1 mice [1]; 50 μg/kg, 24 hr): 10.9 ± 0.1 mg/dL; Bone Calcium Mobilization (serum calcium) (CD-1 mice [1]; 50 μg/kg, 48 hr): 9.6 ± 0.3 mg/dL; Bone Calcium Mobilization (serum calcium) (CD-1 mice [1]; 50 μg/kg, 72 hr): 9.1 ± 0.2 mg/dL; Bone Calcium Mobilization (serum calcium) (CD-1 mice [1]; 450 μg/kg, 0 hr (predose)): 8.8 ± 0.2 mg/dL; Bone Calcium Mobilization (serum calcium) (CD-1 mice [1]; 450 μg/kg, 24 hr): 11.6 ± 0.3 mg/dL; Bone Calcium Mobilization (serum calcium) (CD-1 mice [1]; 450 μg/kg, 48 hr): 11.4 ± 0.7 mg/dL; Bone Calcium Mobilization (serum calcium) (CD-1 mice [1]; 450 μg/kg, 72 hr): 9.4 ± 0.4 mg/dL; Intestinal calcium absorption activity relative to 2-methylene-19-nor-20(S)-1α, 25-(OH)2D3 [2]: about the same activity
C=C1[C@H](O)CC(=C/C=C2\CCC[C@]3(C)[C@@H]([C@@H](C)CCCC(C)(C)O)CC[C@@H]23)C[C@H]1O [2MD, 2-methylene-19-nor-20(S)-1α, 25-(OH)2D3] | – | 8.8 ± 0.3 | 9.4 ± 0.2 | 9.2 ± 0.2 | 8.9 ± 0.2 | 8.8 ± 0.2 | 10.1 ± 0.1 | 10.5 ± 0.2 | 10.1 ± 0.2 | 8.8 ± 0.0 | 10.9 ± 0.2 | 12.6 ± 0.5 | 12.0 ± 0.4 | 8.6 ± 0.1 | 11.5 ± 0.4 | 10.8 ± 0.5 | 13.4 ± 0.6 | –
C=C1[C@H](O)CC(=C/C=C2\CCC[C@]3(C)[C@@H]([C@@H](C)CCCC(C)(C)C)CC[C@@H]23)C[C@H]1O [TMM, 2-methylene-19-nor-20(S)-25-methyl-1α-hydroxycalciferol] | only at the highest dose caused bone resorption in vivo; also recorded: very little bone calcium mobilization activity | 8.7 ± 0.2 | 8.8 ± 0.1 | 8.7 ± 0.1 | 8.7 ± 0.1 | 8.7 ± 0.2 | 8.7 ± 0.2 | 8.6 ± 0.1 | 8.9 ± 0.2 | 8.5 ± 0.3 | 9.0 ± 0.1 | 8.9 ± 0.1 | 8.8 ± 0.2 | 8.8 ± 0.1 | 9.7 ± 0.2 | 9.9 ± 0.3 | 9.5 ± 0.3 | Activity in raising serum calcium (bone calcium mobilization) relative to 1,25-(OH)2D3 (CD-1 mice [1]; compared with 1,25-(OH)2D3, Table 1): approximately equal to 1,25-(OH)2D3; also recorded: below that of the native hormone; Activity in raising serum calcium (bone calcium mobilization) relative to 2MD (CD-1 mice [1]; compared with 2MD, Table 1): one-tenth as active as 2MD; also recorded: fell far below; Intestinal calcium transport activity, in words (CD-1 mice [3]): more intestinal calcium transport activity than does 1,25(OH)2D3; also recorded: very strong effect on intestinal calcium absorption; HL-60 differentiation activity relative to 1,25-(OH)2D3 (HL-60 promyelocytes): essentially equal to that of 1,25-(OH)2D3; Binding to the vitamin D receptor relative to 1,25-(OH)2D3 [4]: one-tenth as well
